Laboratory results: US20120165304A1, “6,7,8,9-Tetrahydro-5H-1,4,7,10a-tetraaza-cyclohept[f]indene derivatives, pharmaceutical compositions containing these compounds, their use and processes for preparing them” (BOEHRINGER INGELHEIM INTERNATIONAL GMBH, priority 2008, published 2012)

Each compound was assayed against human 5-HT2C receptor (Homo sapiens, UniProt P28335, I156V/I160V/N158S) (assay: cell-based).
Chain of human 5-HT2C receptor (P28335 33-458 I156V/N158S/I160V limits assumed): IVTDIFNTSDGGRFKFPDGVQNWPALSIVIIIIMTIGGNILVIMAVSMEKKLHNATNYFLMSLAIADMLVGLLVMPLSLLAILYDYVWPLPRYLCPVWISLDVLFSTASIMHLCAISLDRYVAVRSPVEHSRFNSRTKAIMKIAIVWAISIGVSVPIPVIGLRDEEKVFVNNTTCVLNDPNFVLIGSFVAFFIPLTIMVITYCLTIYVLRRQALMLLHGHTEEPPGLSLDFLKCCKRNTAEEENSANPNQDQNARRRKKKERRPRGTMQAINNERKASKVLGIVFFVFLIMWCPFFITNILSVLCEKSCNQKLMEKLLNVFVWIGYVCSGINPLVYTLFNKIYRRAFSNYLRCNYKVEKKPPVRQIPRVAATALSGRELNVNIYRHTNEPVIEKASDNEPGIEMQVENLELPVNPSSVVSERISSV

Compound | EC50 [nM]
CNCCN(C)C(=O)C1CN(c2c3c(nc4ccnn24)CCNCC3)C1 [Example 37.20] | 26
O=C(C1CN(c2c3c(nc4ccnn24)CCNCC3)C1)N1CCC(N2CCCC2)CC1 [Example 37.5] | 2
CC1CN(C(=O)C2CN(c3c4c(nc5c(Br)cnn35)CCNCC4)C2)CC(C)O1 (centres unmarked) [Example 31.140] | 65
COc1ccc(Cl)c(OCC2CN(c3c4c(nc5ccnn35)CCNCC4)C2)c1 [Example 15.27] | 7
c1ccc2sc(C3CN(c4c5c(nc6ccnn46)CCNCC5)C3)nc2c1 [Example 12, 10-(3-Benzothiazol-2-yl-azetidin-1-yl)-6,7,8,9-tetrahydro-5H-1,4,7,10a-tetraaza-cyclohepta[f]indene] | 253
CC(C)CN(Cc1ccc(F)cc1)C(=O)C1CN(c2c3c(nc4ccnn24)CCNCC3)C1 [Example 31.198] | 1810
CN(Cc1cccc(Cl)c1)C(=O)C1CN(c2c3c(nc4ccnn24)CCNCC3)C1 [Example 31.39] | 44
O=C(C1CN(c2c3c(nc4ccnn24)CCNCC3)C1)N1CCC(Oc2ccccc2Cl)CC1 [Example 31.145] | 94
CCN(C)C(=O)C1CN(c2c3c(nc4ccnn24)CCNCC3)C1 [Example 31.4] | 685
c1cnc2ccc(OC3CN(c4c5c(nc6ccnn46)CCNCC5)C3)cc2c1 [Example 35.43] | 207
COc1ccc2c(c1)CCN(c1c3c(nc4ccnn14)CCNCC3)C2 [Example 1.23] | 522
c1ccc(CC2CN(c3c4c(nc5ccnn35)CCNCC4)C2)nc1 [Example 18, 10-(3-Pyridin-2-ylmethyl-azetidin-1-yl)-6,7,8,9-tetrahydro-5H-1,4,7,10a-tetraaza-cyclohepta[f]indene] | 451
CNC1CCN(C(=O)C2CN(c3c4c(nc5ccnn35)CCNCC4)C2)CC1 [Example 37.14] | 1
c1ccc2c(c1)ncn2C1CCN(c2c3c(nc4ccnn24)CCNCC3)CC1 [Example 1.42] | 9600
COc1cc(Br)ccc1OC1CN(c2c3c(nc4ccnn24)CCNCC3)C1 [Example 35.17] | 88
COc1ccc(OCC2CN(c3c4c(nc5ccnn35)CCNCC4)C2)c(Cl)c1 [Example 15.16] | 3
COc1ccc2c(c1)CCN2C(=O)CC1CN(c2c3c(nc4ccnn24)CCNCC3)C1 [Example 33.3] | 12
Cc1cnn2c(N3CC(C(=O)N4CCC(C(F)(F)F)CC4)C3)c3c(nc12)CCNCC3 [Example 31.237] | 11
O=C(C1CN(c2c3c(nc4ccnn24)CCNCC3)C1)N1CCC(c2cccc(F)c2)C1 (centres unmarked) [Example 31.118] | 11
Cc1cccc2c1CCN2C(=O)C1CN(c2c3c(nc4ccnn24)CCNCC3)C1 [Example 31.175] | 64
CN(c1ccccc1)C1CCN(C(=O)C2CN(c3c4c(nc5ccnn35)CCNCC4)C2)CC1 [Example 37.46] | 2
Cc1cnn2c(N3CC(C(=O)N4c5ccccc5CC4C)C3)c3c(nc12)CCNCC3 (centres unmarked) [Example 31.241] | 84
Cc1cnn2c(N3CC(C(=O)N4CCc5ccccc54)C3)c3c(nc12)CCNCC3 [Example 31.236] | 31
FC1(F)CN(c2c3c(nc4ccnn24)CCNCC3)C1 [Example 1.4] | 2420
C[C@H](NC(=O)C1CN(c2c3c(nc4ccnn24)CCNCC3)C1)C1CCCCC1 [Example 31.189] | 315
COc1ccc(OC2CN(c3c4c(nc5ccnn35)CCNCC4)C2)c(F)c1 [Example 35.34] | 65

Compound | EC50 [nM]
CCC1CCN(C(=O)C2CN(c3c4c(nc5ccnn35)CCNCC4)C2)CC1 [Example 31.68] | 46
O=C(C1CN(c2c3c(nc4c(Br)cnn24)CCNCC3)C1)N1CCc2ccccc2C1 [Example 31.136] | 78
CN(C(=O)C1CN(c2c3c(nc4ccnn24)CCNCC3)C1)c1ccccc1 [Example 31.5] | 742
O=C(C1CN(c2c3c(nc4ccnn24)CCNCC3)C1)N1CCC(CCc2ccc(F)cc2)CC1 [Example 31.105] | 111
CC1CNCCc2c1nc1ccnn1c2N1CCC1 (centres unmarked) [Example 3.1] | 3
C#CCCN(CC(C)C)C(=O)C1CN(c2c3c(nc4ccnn24)CCNCC3)C1 [Example 31.106] | 184
O=C(C1CN(c2c3c(nc4ccnn24)CCNCC3)C1)N1CCC(OCc2ccccc2)CC1 [Example 31.199] | 48
O=C(C1CN(c2c3c(nc4ccnn24)CCNCC3)C1)N1CCc2cccc(Br)c2C1 [Example 31.207] | 43
CN1CCCN(C(=O)C2CN(c3c4c(nc5ccnn35)CCNCC4)C2)CC1 [Example 37.10] | 2
CC1CNCCc2c1nc1ccnn1c2N1CCCCC1 (centres unmarked) [Example 3, 5-Methyl-10-piperidin-1-yl-6,7,8,9-tetrahydro-5H-1,4,7,10a-tetraaza-cyclohepta[f]indene] | 1810
O=C1CCCN1c1ccc(OC2CN(c3c4c(nc5ccnn35)CCNCC4)C2)c(Cl)c1 [Example 35.26] | 115
O=C(C1CC1)N1CCN(C(=O)C2CN(c3c4c(nc5ccnn35)CCNCC4)C2)CC1 [Example 37.56] | 10
CC(C)CNC(=O)C1CN(c2c3c(nc4ccnn24)CCNCC3)C1 [Example 37.78] | 82
N#CC1CCN(C(=O)C2CN(c3c4c(nc5ccnn35)CCNCC4)C2)C1 (centres unmarked) [Example 31.159] | 32
O=C(C1CN(c2c3c(nc4ccnn24)CCNCC3)C1)N1CCC(c2ccccc2)(c2ccccc2)CC1 [Example 31.72] | 819
CCCC1CCN(C(=O)C2CN(c3c4c(nc5ccnn35)CCNCC4)C2)CC1 [Example 31.69] | 36
CN1CCc2nc3ccnn3c(N3CC(C(=O)N4CCN(C5CC5)CC4)C3)c2CC1 [Example 36.24] | 228
CCCN(C)C(=O)C1CN(c2c3c(nc4ccnn24)CCNCC3)C1 [Example 31.66] | 360
Cc1cnn2c(N3CCC3)c3c(nc12)CCNCC3 [Example 27, 10-Azetidin-1-yl-3-methyl-6,7,8,9-tetrahydro-5H-1,4,7,10a-tetraaza-cyclohepta[f]indene] | 49
O=C(C1CN(c2c3c(nc4ccnn24)CCNCC3)C1)N1CCC2(CCCCC2)C1 [Example 31.48] | 38
c1ccc2oc(C3CN(c4c5c(nc6ccnn46)CCNCC5)C3)nc2c1 [Example 14, 10-(3-Benzooxazol-2-yl-azetidin-1-yl)-6,7,8,9-tetrahydro-5H-1,4,7,10a-tetraaza-cyclohepta[f]indene] | 678
CCc1ccc(CN(C)C(=O)C2CN(c3c4c(nc5ccnn35)CCNCC4)C2)cc1 [Example 31.170] | 64
CC(C)C1CCN(C(=O)C2CN(c3c4c(nc5ccnn35)CCNCC4)C2)CC1 [Example 31.85] | 23
C[C@@H]1CN(C(=O)C2CN(c3c4c(nc5ccnn35)CCN(C)CC4)C2)C[C@H](C)O1 [Example 36.21] | 161
OCC1CN(c2c3c(nc4ccnn24)CCNCC3)C1 [Example 1.5] | 193
CC1CCCCN1C(=O)C1CN(c2c3c(nc4ccnn24)CCNCC3)C1 (centres unmarked) [Example 31.62] | 925

Compound | EC50 [nM]
O=C(O)C1CN(c2c3c(nc4ccnn24)CCNCC3)C1 [Example 1.14] | 1340
c1ccc2c(c1)nc(C1CN(c3c4c(nc5ccnn35)CCNCC4)C1)n2C1CCCC1 [Example 34.29] | 96
CC(=O)N1CCN(C(=O)C2CN(c3c4c(nc5ccnn35)CCN(C)CC4)C2)CC1 [Example 36.52] | 181
Cc1cnn2c(N3CC(C(=O)N(C)Cc4ccc(OC(F)F)cc4)C3)c3c(nc12)CCNCC3 [Example 31.249] | 16
O=C(C1CN(c2c3c(nc4ccnn24)CCNCC3)C1)N1CCC2(CCCC2)CC1 [Example 31.41] | 58
Fc1cc(Cl)ccc1OCC1CN(c2c3c(nc4ccnn24)CCNCC3)C1 [Example 15.12] | 9
CN(Cc1ccc(C#N)cc1)C(=O)C1CN(c2c3c(nc4c(Br)cnn24)CCNCC3)C1 [Example 31.139] | 16
CN(CCC1CCCCC1)C(=O)C1CN(c2c3c(nc4ccnn24)CCNCC3)C1 [Example 31.84] | 126
c1ccc(C(OC2CCCN(c3c4c(nc5ccnn35)CCNCC4)C2)c2ccccc2)cc1 (centres unmarked) [Example 1.37] | 1300
O=C(C1CN(c2c3c(nc4ccnn24)CCNCC3)C1)N1CCC1 [Example 31.7] | 3300
CCN1CCCC1CNC(=O)C1CN(c2c3c(nc4ccnn24)CCN(C)CC3)C1 (centres unmarked) [Example 36.4] | 252
CCN1CCCC1CNC(=O)C1CN(c2c3c(nc4ccnn24)CCNCC3)C1 (centres unmarked) [Example 37.90] | 12
CC1CCCN(C(=O)C2CN(c3c4c(nc5ccnn35)CCNCC4)C2)C1 (centres unmarked) [Example 31.1] | 89
O=C(C1CN(c2c3c(nc4ccnn24)CCNCC3)C1)N1CCC2(CC2)C1 [Example 31.14] | 87
Fc1ccc(Cl)c(OCC2CN(c3c4c(nc5ccnn35)CCNCC4)C2)c1 [Example 15.15] | 2
Brc1cnn2c(N3CCC(c4ccccc4)C3)c3c(nc12)CCNCC3 (centres unmarked) [Example 2.2] | 56
CN(Cc1ccc(OC(F)F)cc1)C(=O)C1CN(c2c3c(nc4ccnn24)CCNCC3)C1 [Example 31.161] | 15
O=C(C1CN(c2c3c(nc4ccnn24)CCNCC3)C1)N1CC[C@@H](F)C1 [Example 31.205] | 116
CC1(N)CCN(C(=O)C2CN(c3c4c(nc5ccnn35)CCNCC4)C2)CC1 [Example 37.18] | 2
c1cc2nc3c(c(N4CC(OCC5CCCCC5)C4)n2n1)CCNCC3 [Example 20.4] | 543
c1ccc(C2OCCN(c3c4c(nc5ccnn35)CCNCC4)C2c2ccccc2)cc1 (centres unmarked) [Example 1.40] | 1290
COCCN(C)C(=O)C1CN(c2c3c(nc4ccnn24)CCNCC3)C1 [Example 31.3] | 885
C[C@@H]1CN(C(=O)C2CN(c3c4c(nc5ccnn35)CCNCC4)C2)C[C@H](C)O1 [Example 31.42] | 37
Cc1cnc(C2CN(c3c4c(nc5ccnn35)CCNCC4)C2)o1 [Example 10, 10-[3-(5-Methyl-oxazol-2-yl)-azetidin-1-yl]-6,7,8,9-tetrahydro-5H-1,4,7,10a-tetraaza-cyclohepta[f]indene] | 846
O=C(C1CN(c2c3c(nc4ccnn24)CCNCC3)C1)N1CCC(CCc2ccccc2)C1 (centres unmarked) [Example 31.99] | 64
